Reference: BindingDB's records for doi:10.1016/j.bmcl.2018.08.004 (Beijing Institute of Pharmacology and Toxicology, 2018)
Bridge positions count the residues as written; N and C are the ends. Square brackets hold non-standard residues; d marks the D form. Peptide text beside a SMILES is read from it. Phe(4-Br) = N[C@@H](Cc1ccc(Br)cc1)C(=O)O; Phe(4-Cl) = N[C@@H](Cc1ccc(Cl)cc1)C(=O)O; 1Nal = N[C@@H](Cc1cccc2ccccc12)C(=O)O; 2Nal = N[C@@H](Cc1ccc2ccccc2c1)C(=O)O; Phe(2-F) = N[C@@H](Cc1ccccc1F)C(=O)O; Cit = NC(=O)NCCC[C@H](N)C(=O)O; NMeA = CN[C@@H](C)C(=O)O; Sar = CNCC(=O)O

Test: Agonist activity at EPO receptor in human TF1 cells assessed as induction of cell proliferation after 48 hrs by MTT assay

Structure (SMILES) | EC50
CC[C@H](C)[C@@H]1NC(=O)[C@@H]2CCCN2C(=O)CNC(=O)[C@H](CCSC)NC(=O)[C@H](Cc2cnc[nH]2)NC(=O)[C@@H](NC(=O)[C@H](C)NC(=O)[C@H](Cc2ccc(O)cc2)NC(=O)[C@H](CC(C)C)NC(=O)CNC(=O)CNC(C)=O)CSSC[C@@H](C(=O)N[C@@H](CCC(N)=O)C(=O)N(C)[C@@H](C)C(=O)N[C@@H](CC(C)C)C(=O)N[C@@H](CCCNC(=N)N)C(=O)N(C)CC(=O)N[C@@H](CCCCN)C(N)=O)NC(=O)[C@H](C(C)C)NC(=O)[C@H](Cc2cccc3ccccc23)NC(=O)[C@H]([C@@H](C)O)NC1=O (Ac-GGLYACHMGPIT[1Nal]VCQ[NMeA]LR[Sar]K-NH2; disulfide 6-15) | 12 nM
CC[C@H](C)[C@@H]1NC(=O)[C@@H]2CCCN2C(=O)CNC(=O)[C@H](CCSC)NC(=O)[C@H](Cc2cnc[nH]2)NC(=O)[C@@H](NC(=O)[C@H](C)NC(=O)[C@H](Cc2ccc(O)cc2)NC(=O)[C@H](CC(C)C)NC(=O)CNC(=O)CNC(C)=O)CSSC[C@@H](C(=O)N[C@@H](CCC(N)=O)C(=O)N(C)CC(=O)N[C@@H](CC(C)C)C(=O)N[C@@H](CCCNC(=N)N)C(=O)N(C)CC(=O)N[C@@H](CCCCN)C(N)=O)NC(=O)[C@H](C(C)C)NC(=O)[C@H](Cc2cccc3ccccc23)NC(=O)[C@H]([C@@H](C)O)NC1=O (Ac-GGLYACHMGPIT[1Nal]VCQ[Sar]LR[Sar]K-NH2; disulfide 6-15) | 42 nM
CC[C@H](C)[C@@H]1NC(=O)[C@@H]2CCCN2C(=O)CNC(=O)[C@H](CCSC)NC(=O)[C@H](Cc2cnc[nH]2)NC(=O)[C@@H](NC(=O)[C@H](C)NC(=O)[C@H](Cc2ccc(O)cc2)NC(=O)[C@H](CC(C)C)NC(=O)CNC(=O)CNC(C)=O)CSSC[C@@H](C(=O)N[C@@H](CCC(N)=O)C(=O)N2CCC[C@H]2C(=O)N[C@@H](CC(C)C)C(=O)N[C@@H](CCCNC(=N)N)C(=O)N(C)CC(=O)N[C@@H](CCCCN)C(N)=O)NC(=O)[C@H](C(C)C)NC(=O)[C@H](Cc2ccc(Br)cc2)NC(=O)[C@H]([C@@H](C)O)NC1=O (Ac-GGLYACHMGPIT[Phe(4-Br)]VCQPLR[Sar]K-NH2; disulfide 6-15) | 540 nM
CC[C@H](C)[C@@H]1NC(=O)CN(C)C(=O)CNC(=O)[C@H](CCSC)NC(=O)[C@H](Cc2cnc[nH]2)NC(=O)[C@@H](NC(=O)[C@H](C)NC(=O)[C@H](Cc2ccc(O)cc2)NC(=O)[C@H](CC(C)C)NC(=O)CNC(=O)CNC(C)=O)CSSC[C@@H](C(=O)N[C@@H](CCC(N)=O)C(=O)N2CCC[C@H]2C(=O)N[C@@H](CC(C)C)C(=O)N[C@@H](CCCNC(=N)N)C(=O)N(C)CC(=O)N[C@@H](CCCCN)C(N)=O)NC(=O)[C@H](C(C)C)NC(=O)[C@H](Cc2cccc3ccccc23)NC(=O)[C@H]([C@@H](C)O)NC1=O (Ac-GGLYACHMG[Sar]IT[1Nal]VCQPLR[Sar]K-NH2; disulfide 6-15) | 31 nM
CC[C@H](C)[C@@H]1NC(=O)[C@@H]2CCCN2C(=O)CNC(=O)[C@H](CCSC)NC(=O)[C@H](Cc2cnc[nH]2)NC(=O)[C@@H](NC(=O)[C@H](C)NC(=O)[C@H](Cc2ccc(O)cc2)NC(=O)[C@H](CC(C)C)NC(=O)CNC(=O)CNC(C)=O)CSSC[C@@H](C(=O)N[C@@H](CCC(N)=O)C(=O)N2CCC[C@H]2C(=O)N[C@@H](CC(C)C)C(=O)N[C@@H](CCCNC(N)=O)C(=O)N(C)CC(=O)N[C@@H](CCCCN)C(N)=O)NC(=O)[C@H](C(C)C)NC(=O)[C@H](Cc2cccc3ccccc23)NC(=O)[C@H]([C@@H](C)O)NC1=O (Ac-GGLYACHMGPIT[1Nal]VCQPL[Cit][Sar]K-NH2; disulfide 6-15) | 31 nM
CC[C@H](C)[C@@H]1NC(=O)[C@@H]2CCCN2C(=O)CNC(=O)[C@H](CCSC)NC(=O)[C@H](Cc2cnc[nH]2)NC(=O)[C@@H](NC(=O)[C@H](C)NC(=O)[C@H](Cc2ccc(O)cc2)NC(=O)[C@H](CC(C)C)NC(=O)CNC(=O)CNC(C)=O)CSSC[C@@H](C(=O)N[C@@H](CCC(N)=O)C(=O)N2CCC[C@H]2C(=O)N[C@@H](CC(C)C)C(=O)N[C@@H](CCCNC(=N)N)C(=O)N(C)CC(=O)N[C@@H](CCCCN)C(N)=O)NC(=O)[C@H](C(C)C)NC(=O)[C@H](Cc2ccc3ccccc3c2)NC(=O)[C@H]([C@@H](C)O)NC1=O (Ac-GGLYACHMGPIT[2Nal]VCQPLR[Sar]K-NH2; disulfide 6-15) | 540 nM
CC[C@H](C)[C@@H]1NC(=O)[C@@H]2CCCN2C(=O)CNC(=O)[C@H](CCSC)NC(=O)[C@H](Cc2cnc[nH]2)NC(=O)[C@@H](NC(=O)[C@H](C)NC(=O)[C@H](Cc2ccc(O)cc2)NC(=O)[C@H](CC(C)C)NC(=O)CNC(=O)CNC(C)=O)CSSC[C@@H](C(=O)N[C@@H](CCC(N)=O)C(=O)N2CCC[C@H]2C(=O)N[C@@H](CC(C)C)C(=O)N[C@@H](CCCNC(=N)N)C(=O)N(C)CC(=O)N[C@@H](CCCCN)C(N)=O)NC(=O)[C@H](C(C)C)NC(=O)[C@H](Cc2cccc3ccccc23)NC(=O)[C@H]([C@@H](C)O)NC1=O | 11 nM
CC[C@H](C)[C@@H]1NC(=O)[C@@H]2CCCN2C(=O)CNC(=O)[C@H](CCSC)NC(=O)[C@H](Cc2cnc[nH]2)NC(=O)[C@@H](NC(=O)[C@H](C)NC(=O)[C@H](Cc2ccc(O)cc2)NC(=O)[C@H](CC(C)C)NC(=O)CNC(=O)CNC(C)=O)CSSC[C@@H](C(=O)N[C@@H](CCC(N)=O)C(=O)N2CCC[C@H]2C(=O)N[C@@H](CC(C)C)C(=O)N[C@@H](CCCNC(=N)N)C(=O)N(C)CC(=O)N[C@@H](CCCCN)C(N)=O)NC(=O)[C@H](C(C)C)NC(=O)[C@H](Cc2ccccc2F)NC(=O)[C@H]([C@@H](C)O)NC1=O (Ac-GGLYACHMGPIT[Phe(2-F)]VCQPLR[Sar]K-NH2; disulfide 6-15) | 540 nM
CC[C@H](C)[C@@H]1NC(=O)[C@H](C)N(C)C(=O)CNC(=O)[C@H](CCSC)NC(=O)[C@H](Cc2cnc[nH]2)NC(=O)[C@@H](NC(=O)[C@H](C)NC(=O)[C@H](Cc2ccc(O)cc2)NC(=O)[C@H](CC(C)C)NC(=O)CNC(=O)CNC(C)=O)CSSC[C@@H](C(=O)N[C@@H](CCC(N)=O)C(=O)N2CCC[C@H]2C(=O)N[C@@H](CC(C)C)C(=O)N[C@@H](CCCNC(=N)N)C(=O)N(C)CC(=O)N[C@@H](CCCCN)C(N)=O)NC(=O)[C@H](C(C)C)NC(=O)[C@H](Cc2cccc3ccccc23)NC(=O)[C@H]([C@@H](C)O)NC1=O (Ac-GGLYACHMG[NMeA]IT[1Nal]VCQPLR[Sar]K-NH2; disulfide 6-15) | 26 nM
CC[C@H](C)[C@@H]1NC(=O)[C@@H]2CCCN2C(=O)CNC(=O)[C@H](CCSC)NC(=O)[C@H](Cc2cnc[nH]2)NC(=O)[C@@H](NC(=O)[C@H](C)NC(=O)[C@H](Cc2ccc(O)cc2)NC(=O)[C@H](CC(C)C)NC(=O)CNC(=O)CNC(C)=O)CSSC[C@@H](C(=O)N[C@@H](CCC(N)=O)C(=O)N2CCC[C@H]2C(=O)N[C@@H](CC(C)C)C(=O)N[C@@H](CCCNC(=N)N)C(=O)N(C)CC(=O)N[C@@H](CCCCN)C(N)=O)NC(=O)[C@H](C(C)C)NC(=O)[C@H](Cc2ccc(Cl)cc2)NC(=O)[C@H]([C@@H](C)O)NC1=O (Ac-GGLYACHMGPIT[Phe(4-Cl)]VCQPLR[Sar]K-NH2; disulfide 6-15) | 240 nM
